Laboratory results as given in ChEMBL document CHEMBL3734705, “Synthesis and in vitro cytotoxicity of novel C-12 substituted-14-deoxy-andrographolide derivatives as potent anti-cancer agents” (2015).

Tests used:
[1] = Cytotoxicity against human MOLT4 cells assessed as growth level at 10 uM after 48 hrs by SRB assay; format: functional, MOLT-4
[2] = system: A549; assay: Cytotoxicity against human A549 cells assessed as growth level at 10 uM after 48 hrs by SRB assay; format: functional
[3] = system: EKVX; assay: Cytotoxicity against human EKVX cells assessed as growth level at 10 uM after 48 hrs by SRB assay; format: functional
[4] = system: NCI-H226; assay: Cytotoxicity against human NCI-H226 cells assessed as growth level at 10 uM after 48 hrs by SRB assay; format: functional
[5] = system: NCI-H322M; assay: Cytotoxicity against human NCI-H322M cells assessed as growth level at 10 uM after 48 hrs by SRB assay; format: functional
[6] = system: NCI-H460; assay: Cytotoxicity against human NCI-H460 cells assessed as growth level at 10 uM after 48 hrs by SRB assay; format: functional
[7] = Cytotoxicity against human HCT15 cells assessed as growth level at 10 uM after 48 hrs by SRB assay; format: functional, HCT-15
[8] = system: KM12; assay: Cytotoxicity against human KM12 cells assessed as growth level at 10 uM after 48 hrs by SRB assay; format: functional
[9] = Cytotoxicity against human SF539 cells assessed as growth level at 10 uM after 48 hrs by SRB assay; format: functional, SF-539
[10] = system: Malme-3M; assay: Cytotoxicity against human MALME-3M cells assessed as growth level at 10 uM after 48 hrs by SRB assay; format: functional
[11] = system: SK-MEL-28; assay: Cytotoxicity against human SK-MEL-28 cells assessed as growth level at 10 uM after 48 hrs by SRB assay; format: functional
[12] = Cytotoxicity against human UACC62 cells assessed as growth level at 10 uM after 48 hrs by SRB assay; format: functional, UACC-62
[13] = Cytotoxicity against human OVCAR5 cells assessed as growth level at 10 uM after 48 hrs by SRB assay; format: functional, OVCAR-5
[14] = Cytotoxicity against human SKOV3 cells assessed as growth level at 10 uM after 48 hrs by SRB assay; format: functional, SK-OV-3
[15] = Cytotoxicity against human RXF393 cells assessed as growth level at 10 uM after 48 hrs by SRB assay; format: functional, RXF 393
[16] = system: SN12C; assay: Cytotoxicity against human SN12C cells assessed as growth level at 10 uM after 48 hrs by SRB assay; format: functional
[17] = Cytotoxicity against human TK10 cells assessed as growth level at 10 uM after 48 hrs by SRB assay; format: functional, TK-10
[18] = Cytotoxicity against human UO31 cells assessed as growth level at 10 uM after 48 hrs by SRB assay; format: functional, UO-31
[19] = system: MCF7; assay: Cytotoxicity against human MCF7 cells assessed as growth level at 10 uM after 48 hrs by SRB assay; format: functional
[20] = system: MDA-MB-231; assay: Cytotoxicity against human MDA-MB-231 cells assessed as growth level at 10 uM after 48 hrs by SRB assay; format: functional
[21] = Cytotoxicity against human BT549 cells assessed as growth level at 10 uM after 48 hrs by SRB assay; format: functional, BT-549
[22] = system: T47D; assay: Cytotoxicity against human T47D cells assessed as growth level at 10 uM after 48 hrs by SRB assay; format: functional
[23] = system: MDA-MB-468; assay: Cytotoxicity against human MDA-MB-468 cells assessed as growth level at 10 uM after 48 hrs by SRB assay; format: functional
[24] = system: CCRF-CEM; assay: Cytotoxicity against human CCRF-CEM cells assessed as growth inhibition at 10 uM after 48 hrs by SRB assay; format: functional; settings: read-out: GI
[25] = Cytotoxicity against human RPMI8226 cells assessed as growth inhibition at 10 uM after 48 hrs by SRB assay; format: functional; settings: RPMI-8226, 48 h, read-out: GI
[26] = system: SR; assay: Cytotoxicity against human SR cells assessed as growth inhibition at 10 uM after 48 hrs by SRB assay; format: functional; settings: read-out: GI
[27] = Cytotoxicity against human HOP62 cells assessed as growth inhibition at 10 uM after 48 hrs by SRB assay; format: functional; settings: HOP-62, 48 h, read-out: GI
[28] = Cytotoxicity against human HOP92 cells assessed as growth inhibition at 10 uM after 48 hrs by SRB assay; format: functional; settings: HOP-92, 48 h, read-out: GI
[29] = system: NCI-H226; assay: Cytotoxicity against human NCI-H226 cells assessed as growth inhibition at 10 uM after 48 hrs by SRB assay; format: functional; settings: NCI-H226, 48 h, read-out: GI
[30] = system: NCI-H322M; assay: Cytotoxicity against human NCI-H322M cells assessed as growth inhibition at 10 uM after 48 hrs by SRB assay; format: functional; settings: read-out: GI
[31] = system: NCI-H460; assay: Cytotoxicity against human NCI-H460 cells assessed as growth inhibition at 10 uM after 48 hrs by SRB assay; format: functional; settings: NCI-H460, 48 h, read-out: GI
[32] = system: NCI-H522; assay: Cytotoxicity against human NCI-H522 cells assessed as growth inhibition at 10 uM after 48 hrs by SRB assay; format: functional; settings: NCI-H522, 48 h, read-out: GI
[33] = Cytotoxicity against human HCT15 cells assessed as growth inhibition at 10 uM after 48 hrs by SRB assay; format: functional; settings: HCT-15, 48 h, read-out: GI
[34] = Cytotoxicity against human SF539 cells assessed as growth inhibition at 10 uM after 48 hrs by SRB assay; format: functional; settings: SF-539, 48 h, read-out: GI
[35] = Cytotoxicity against human SNB75 cells assessed as growth inhibition at 10 uM after 48 hrs by SRB assay; format: functional; settings: SNB-75, 48 h, read-out: GI
[36] = Cytotoxicity against human UACC257 cells assessed as growth inhibition at 10 uM after 48 hrs by SRB assay; format: functional; settings: UACC-257, 48 h, read-out: GI
[37] = Cytotoxicity against human IGROV1 cells assessed as growth inhibition at 10 uM after 48 hrs by SRB assay; format: functional; settings: IGROV-1, 48 h, read-out: GI
[38] = Cytotoxicity against human OVCAR8 cells assessed as growth inhibition at 10 uM after 48 hrs by SRB assay; format: functional; settings: OVCAR-8, 48 h, read-out: GI
[39] = Cytotoxicity against human NCI-ADR-RES cells assessed as growth inhibition at 10 uM after 48 hrs by SRB assay; format: functional; settings: read-out: GI
[40] = system: A498; assay: Cytotoxicity against human A498 cells assessed as growth inhibition at 10 uM after 48 hrs by SRB assay; format: functional; settings: A498, 48 h, read-out: GI
[41] = system: ACHN; assay: Cytotoxicity against human ACHN cells assessed as growth inhibition at 10 uM after 48 hrs by SRB assay; format: functional; settings: read-out: GI
[42] = system: SN12C; assay: Cytotoxicity against human SN12C cells assessed as growth inhibition at 10 uM after 48 hrs by SRB assay; format: functional; settings: read-out: GI
[43] = system: MDA-MB-468; assay: Cytotoxicity against human MDA-MB-468 cells assessed as growth inhibition at 10 uM after 48 hrs by SRB assay; format: functional; settings: MDA-MB-468, 48 h, read-out: GI
[44] = system: CCRF-CEM; assay: Cytotoxicity against human CCRF-CEM cells assessed as growth level at 10 uM after 48 hrs by SRB assay; format: functional
[45] = Cytotoxicity against human HL-60(TB) cells assessed as growth level at 10 uM after 48 hrs by SRB assay; format: functional

C=C1CC[C@@H]2[C@](C)(COC(C)=O)[C@H](OC(C)=O)CC[C@@]2(C)[C@@H]1CC(NCCCC)C1=CCOC1=O (mixture of isomers)
Activity [1]: 55.54%
Activity [2]: 81.23%
Activity [3]: 71.43%
Activity [4]: 75.67%
Activity [5]: 96.22%
Activity [6]: 91.62%
Activity [7]: 96.89%
Activity [8]: 92.79%
Activity [9]: 90.54%
Activity [10]: 97.57%
Activity [11]: 98.09%
Activity [12]: 72.38%
Activity [13]: 95.04%
Activity [14]: 92.42%
Activity [15]: 104.19%
Activity [16]: 89.83%
Activity [17]: 99.06%
Activity [18]: 84%
Activity [19]: 82.86%
Activity [20]: 79.12%
Activity [21]: 89.2%
Activity [22]: 71.96%
Activity [23]: 66.18%
inhibition of growth at 10 µM [24]: 19.3%
inhibition of growth at 10 µM [25]: 39.5%
inhibition of growth at 10 µM [26]: 51.5%
inhibition of growth at 10 µM [27]: 6.04%
inhibition of growth at 10 µM [28]: 46.7%
inhibition of growth at 10 µM [29]: 24.3%
inhibition of growth at 10 µM [30]: 3.78%
inhibition of growth at 10 µM [31]: 8.38%
inhibition of growth at 10 µM [32]: 20.9%
inhibition of growth at 10 µM [33]: 3.11%
inhibition of growth at 10 µM [34]: 9.46%
inhibition of growth at 10 µM [35]: 22.1%
inhibition of growth at 10 µM [36]: 14.8%
inhibition of growth at 10 µM [37]: 20%
inhibition of growth at 10 µM [38]: 10.4%
inhibition of growth at 10 µM [39]: 12.7%
inhibition of growth at 10 µM [40]: 24.6%
inhibition of growth at 10 µM [41]: 0.58%
inhibition of growth at 10 µM [42]: 10.2%
inhibition of growth at 10 µM [43]: 33.8%
Activity [44]: 80.69%
Activity [45]: 93.82%
